Reference: publication PMC9516332 (Frontiers in Oncology, 2022)
Like-named read-outs stand apart in the source and are kept apart here.

System: 134 cancer cell lines
Experiment: Cell viability assay (ATPlite, 72 hours), IC50 on cancer cell line panel

## COc1cc2ncnc(Nc3ccc(F)c(Cl)c3)c2cc1NC(=O)/C=C/CN1CCCCC1 [dacomitinib]
Homo sapiens, MOLM-13, read-out: IC50 in cell proliferation assay, MOLM-13 cell line (FLT3 ITD)
  IC50: 1.17 µM
Homo sapiens, MOLT-4, read-out: IC50 in cell proliferation assay, MOLT-4 cell line
  IC50: 3.64 µM
Homo sapiens, MV4-11, read-out: IC50 in cell proliferation assay, MV4-11 cell line (FLT3 ITD)
  IC50: 0.23 µM
Homo sapiens, MeWo, read-out: IC50 in cell proliferation assay, MeWo cell line
  IC50: 3.92 µM
Homo sapiens, NCCIT, read-out: IC50 in cell proliferation assay, NCC-IT cell line
  IC50: 4.43 µM
Homo sapiens, NCI-H82, read-out: IC50 in cell proliferation assay, cell line NCI-H82
  IC50: 3.91 µM
Homo sapiens, NCI-H460, read-out: IC50 in cell proliferation assay, NCI-H460 cell line
  IC50: 4.69 µM
Homo sapiens, NCI-H661, read-out: IC50 in cell proliferation assay, NCI-H661 cell line
  IC50: 3.68 µM
Homo sapiens, NCI-H716, read-out: IC50 in cell proliferation assay, cell line NCI-H716 (FGFR2-COL14A1)
  IC50: 4.91 µM
Homo sapiens, NCI-H1650, read-out: IC50 in cell proliferation assay, NCI-H1650 cell line (EGFR exon19del)
  IC50: 0.006 µM
Homo sapiens, NCI-H1975, read-out: IC50 in cell proliferation assay, NCI-H1975 cell line (EGFR p.L858R + p.T790M)
  IC50: 0.153 µM
Homo sapiens, NCI-H2228, read-out: IC50 in cell proliferation assay, NCI-H2228 cell line (EML4-ALK)
  IC50: 4.89 µM
Homo sapiens, OVCAR-3, read-out: IC50 in cell proliferation assay, cell line OVCAR-3
  IC50: 0.023 µM
Homo sapiens, PFSK-1, read-out: IC50 in cell proliferation assay, cell line PFSK-1
  IC50: 4.48 µM
Homo sapiens, RL95-2, read-out: IC50 in cell proliferation assay, cell line RL95-2 (EGFR p.A289V)
  IC50: 0.008 µM
Homo sapiens, RPMI-7951, read-out: IC50 in cell proliferation assay, cell line RPMI-7951 (BRAF p.V600E)
  IC50: 3.97 µM
Homo sapiens, RS4-11, read-out: IC50 in cell proliferation assay, cell line RS4;11
  IC50: 3.36 µM
Homo sapiens, Rec1, read-out: IC50 in cell proliferation assay, cell line REC-1
  IC50: 0.845 µM
Homo sapiens, SHP77, read-out: IC50 in cell proliferation assay, cell line SHP-77
  IC50: 5.08 µM
Homo sapiens, SK-BR-3, read-out: IC50 in cell proliferation assay, cell line SK-BR-3 (ERBB2 amplification)
  IC50: 0.027 µM
Homo sapiens, SK-N-AS, read-out: IC50 in cell proliferation assay, cell line SK-N-AS
  IC50: 3.08 µM
Homo sapiens, SK-N-FI, read-out: IC50 in cell proliferation assay, cell line SK-N-FI
  IC50: 3.36 µM
Homo sapiens, SK-N-MC, read-out: IC50 in cell proliferation assay, cell line SK-N-MC
  IC50: 2.94 µM
Homo sapiens, SK-N-SH, read-out: IC50 in cell proliferation assay, cell line SK-N-SH (ALK p.F1174L)
  IC50: 2.47 µM
Homo sapiens, SNU-5, read-out: IC50 in cell proliferation assay, cell line SNU-5 (MET amplification)
  IC50: 3.41 µM
Homo sapiens, SNU-16, read-out: IC50 in cell proliferation assay, cell line SNU-16 (FGFR2 amplification)
  IC50: 3.88 µM
Homo sapiens, SNU-C2B, read-out: IC50 in cell proliferation assay, cell line SNU-C2B (EGFR p.R165Q)
  IC50: 5.59 µM
Homo sapiens, SU-DHL-1, read-out: IC50 in cell proliferation assay, cell line SU-DHL-1 (NPM1-ALK)
  IC50: 3.51 µM
Homo sapiens, SU-DHL-6, read-out: IC50 in cell proliferation assay, cell line SU-DHL-6
  IC50: 2.55 µM
Homo sapiens, SUP-T1, read-out: IC50 in cell proliferation assay, cell line SUP-T1
  IC50: 4.54 µM
Homo sapiens, SW48, read-out: IC50 in cell proliferation assay, cell line SW48 (EGFR p.G719S)
  IC50: 0.000636 µM
Homo sapiens, SW480, read-out: IC50 in cell proliferation assay, cell line SW480
  IC50: 4.83 µM
Homo sapiens, SW626, read-out: IC50 in cell proliferation assay, cell line SW626
  IC50: 5.24 µM
Homo sapiens, SW780, read-out: IC50 in cell proliferation assay, cell line SW780 (FGFR3-BAIAP2L1)
  IC50: 4.61 µM
Homo sapiens, SW837, read-out: IC50 in cell proliferation assay, cell line SW837
  IC50: 6.48 µM
Homo sapiens, SW872, read-out: IC50 in cell proliferation assay, cell line SW872 (BRAF p.V600E)
  IC50: 5.03 µM
Homo sapiens, SW900, read-out: IC50 in cell proliferation assay, cell line SW900
  IC50: 4.74 µM
Homo sapiens, SW948, read-out: IC50 in cell proliferation assay, cell line SW948
  IC50: 4.8 µM
Homo sapiens, SW982, read-out: IC50 in cell proliferation assay, cell line SW982 (BRAF p.V600E)
  IC50: 3.94 µM
Homo sapiens, SW-620, read-out: IC50 in cell proliferation assay, cell line SW620
  IC50: 5.18 µM
Homo sapiens, T98G, read-out: IC50 in cell proliferation assay, cell line T98G
  IC50: 4.59 µM
Homo sapiens, TCC-SUP, read-out: IC50 in cell proliferation assay, cell line TCCSUP
  IC50: 3.39 µM
Homo sapiens, THP-1, read-out: IC50 in cell proliferation assay, cell line THP-1
  IC50: 3.91 µM
Homo sapiens, U2OS, read-out: IC50 in cell proliferation assay, cell line U2OS
  IC50: 3.31 µM
Homo sapiens, U-87 MG, read-out: IC50 in cell proliferation assay, cell line U-87MG ATCC
  IC50: 4.41 µM
Homo sapiens, U-118-MG, read-out: IC50 in cell proliferation assay, cell line U-118MG
  IC50: 3.63 µM
Homo sapiens, UMUC3, read-out: IC50 in cell proliferation assay, cell line UM-UC-3
  IC50: 3.19 µM
Hs766T, read-out: IC50 in cell proliferation assay, Hs 766T cell line
  IC50: 5.01 µM
L-82, read-out: IC50 in cell proliferation assay, L-82 cell line (NPM1-ALK)
  IC50: 1.65 µM
Rh30, read-out: IC50 in cell proliferation assay, cell line Rh30
  IC50: 3.93 µM
read-out: IC50 in cell proliferation assay, 11-18 cell line (EGFR p.L858R)
  IC50: 0.002 µM
read-out: IC50 in cell proliferation assay, Hs 852.T cell line
  IC50: 3.75 µM
read-out: IC50 in cell proliferation assay, JAR cell line
  IC50: 3.05 µM
read-out: IC50 in cell proliferation assay, cell line 5637
  IC50: 0.031 µM
read-out: IC50 in cell proliferation assay, cell line A-388
  IC50: 0.019 µM
read-out: IC50 in cell proliferation assay, cell line DB
  IC50: 3.6 µM
read-out: IC50 in cell proliferation assay, cell line DEL (NPM1-ALK)
  IC50: 2.04 µM
read-out: IC50 in cell proliferation assay, cell line ES-2 (BRAF p.V600E)
  IC50: 2.99 µM
read-out: IC50 in cell proliferation assay, cell line PA-1
  IC50: 2.7 µM
read-out: IC50 in cell proliferation assay, cell line PC-3
  IC50: 5.26 µM
read-out: IC50 in cell proliferation assay, cell line RD
  IC50: 2.53 µM
read-out: IC50 in cell proliferation assay, cell line RKO (BRAF p.V600E)
  IC50: 3.58 µM
read-out: IC50 in cell proliferation assay, cell line RL
  IC50: 4.15 µM
read-out: IC50 in cell proliferation assay, cell line RT-4 (FGFR3-TACC3)
  IC50: 0.014 µM
read-out: IC50 in cell proliferation assay, cell line SR (NPM1-ALK)
  IC50: 3.55 µM
read-out: IC50 in cell proliferation assay, cell line T24
  IC50: 3.02 µM
read-out: IC50 in cell proliferation assay, cell line TT (RET p.C634W)
  IC50: 4.83 µM
read-out: IC50 in cell proliferation assay, cell line VA-ES-BJ
  IC50: 3.55 µM
